{"source": "paper PMC6934184", "about": "“Selective DNA-PKcs inhibition extends the therapeutic index of localized radiotherapy and chemotherapy” (The Journal of Clinical Investigation, 2019)", "molecular_target": "T1, AXL R499C (Homo sapiens, UniProt P30530, R499C)", "T1 construct": "purchased Thermo Fisher Scientific (Life Technologies) SelectScreen", "T1 sequence (P30530 26-894 R499C)": "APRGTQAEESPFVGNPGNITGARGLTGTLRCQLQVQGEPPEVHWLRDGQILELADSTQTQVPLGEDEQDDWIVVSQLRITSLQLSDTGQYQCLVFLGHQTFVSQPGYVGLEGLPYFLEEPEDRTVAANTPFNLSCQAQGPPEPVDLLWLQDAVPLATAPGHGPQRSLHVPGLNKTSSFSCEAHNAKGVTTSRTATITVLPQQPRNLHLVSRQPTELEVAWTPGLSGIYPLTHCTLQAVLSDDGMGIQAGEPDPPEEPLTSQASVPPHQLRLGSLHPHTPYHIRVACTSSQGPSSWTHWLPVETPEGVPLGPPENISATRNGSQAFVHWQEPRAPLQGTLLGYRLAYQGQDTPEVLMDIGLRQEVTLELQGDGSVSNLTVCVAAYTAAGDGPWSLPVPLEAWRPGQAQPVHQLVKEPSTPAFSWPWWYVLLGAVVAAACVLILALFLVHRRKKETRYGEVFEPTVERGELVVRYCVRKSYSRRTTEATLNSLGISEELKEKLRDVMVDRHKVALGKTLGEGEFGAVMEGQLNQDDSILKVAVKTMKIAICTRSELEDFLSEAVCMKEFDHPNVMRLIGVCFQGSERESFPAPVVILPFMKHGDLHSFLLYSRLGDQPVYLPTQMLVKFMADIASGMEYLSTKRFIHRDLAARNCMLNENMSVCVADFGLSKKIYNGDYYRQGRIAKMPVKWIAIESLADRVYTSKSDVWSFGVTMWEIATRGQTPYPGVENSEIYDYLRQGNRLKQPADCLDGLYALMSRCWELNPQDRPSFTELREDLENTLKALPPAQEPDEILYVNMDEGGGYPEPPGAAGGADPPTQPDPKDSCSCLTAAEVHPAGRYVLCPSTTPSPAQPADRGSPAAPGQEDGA", "assay": "SelectScreen LanthaScreen", "format": "binding", "settings": "read-out: % displacement", "method_in_brief": "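Percent values come from Thermo SelectScreen profiling of NU5455, combining activity and binding assays. CSF1R was run in Z'LYTE format at Km app ATP, and CAMK1 in Adapta format with ATP listed at 10.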"}
{"smiles": "CN(C(=O)CN1CCOCC1)c1ccc2sc3c(-c4cccc5c(=O)cc(N6CC7CCC(C6)O7)oc45)cccc3c2c1", "note": "[NU5455]", "values": [{"measurement": "inhibition at 1 µM", "result": -2.7, "unit": "%"}]}
